Test system: patients with heart failure and left ventricular ejection fraction ≥40% (HFmrEF/HFpEF)
Format: in vivo
Conditions: bilirubin Tertile 1 ≤0.4 mg/dL; N = 957

CCOc1ncc(C)c2c1[C@H](c1ccc(C#N)cc1OC)C(C(N)=O)=C(C)N2 [finerenone, (4S)-4-(4-cyano-2-methoxyphenyl)-5-ethoxy-2,8-dimethyl-1,4-dihydro-1,6-naphthyridine-3-carboxamide]
Total worsening HF events, event rate: 12.4 per 100 PY

From patent US20260272900A1 (Bayer Aktiengesellschaft, priority 2024, published 2026)
